Measured values: US10206944B2, “Chondroitin for use in medicine” (ALTERGON S.A., priority 2012, dated 2019)

Key:
Collagen Type II = assay: Real-Time PCR gene expression in human chondrocytes: type II collagen; format: cell-based; conditions: 1% w/v, ratio to untreated control
Method: (§1) To evaluate the biological effects of chondroitin on human chondrocyte cultures, the expression of a set of genes considered key to establishing the phenotype, and suitable markers for evaluating the quality of the tissue generated, was determined. The study was conducted on chondrocytes prepared from human cartilage, as reported in Example 2, the cells being grown in the presence of chondroitin or chondroitin sulphate. Using a standard procedure, 5*10^4 cells per well were seeded in a 24-well multiwell plate. The chondrocytes were grown in DMEM containing 1% w/v of chondroitin or chondroitin sulphate (endotoxin content ≤0.1 EU/mg). The cells were stimulated for 4, 7 and 10 days (Ishak et al., International J. of Pediatric Otorhinolaryngology, 2011, 75: 835-840), after which the RNA was extracted with Trizol Reagent, as described in the kit manual (Life Technologies Ltd, Milan, Italy). A qualitative morphological analysis of the cell culture was also conducted at the various times, in parallel with RNA extraction, by observing the corresponding samples at 4, 7 and 10 days under the optical microscope. The cells seeded at the three different times were observed under the microscope, and the images that best represented the cell growth conditions were acquired using a time-lapse videomicroscopy workstation. After RNA extraction, reverse transcription was performed with a total of 1 μg RNA and then with amplification by Real-Time PCR of genes which are specific markers for chondrocytes (Table 3).
(§2) Genes connected with matrix production, such as aggrecan, type I collagen, type II collagen and the Sox9 gene, the expression of which is closely correlated with the expression of type II collagen, were analysed as specific markers for differentiation and characterisation of chondrocytes. (Akiyama H., Mod Rheumatol., 2008, 18(3): 213-9; Yang et al., J. of Orthopaedic Res. 2011).
(§3) The gene expression of said markers on human chondrocytes cultured in basic medium (control) and with chondroitin treatment (C) or chondroitin sulphate treatment (CS) was analysed on cell cultures in the second and third growth phases.
(§4) The results of the gene expression analysis were reported as the average of at least 3 independent experiments for tests conducted in the presence of C or CS, on cells in phases 2 and 3.

HaCat cells = assay: Wound-healing test by time-lapse microscopy (keratinocyte growth); format: cell-based, human; conditions: for time to wound repair (closure of the cut): HaCat confluent layer with cut, time-lapse, control closes after 40 h; for effect on the repair process: concentration of 0.1 w/v
Method: HaCat cells, an immortalised cell line of human keratinocytes, are used as model system. The HaCat cells are grown and amplified in Dulbecco's Modified Eagle Medium (DMEM) containing 10% foetal bovine serum (FBS)+1% Pen-Strep solution (10,000 units of penicillin-G/mL and 10 mg of streptomycin/mL in saline solution) in an incubator for cell cultures (37° C., 5% CO2 in humid air). The wound-healing experiments are conducted by time-lapse optical microscopy, a technique that allows cell behaviour to be monitored for lengthy times (2-4 days) in terms of adhesion, proliferation and motility. The system consists of an inverted optical microscope (Zeiss Axiovert 200), a thermostatic bath (LAUDA Ecoline), a CO2 microincubator with geometry such as to house plates of variable dimensions (from 6 to 96 wells), and a control unit for the output gases (air and CO2). The instrument is also equipped with a digital video camera and a control motor, which allows the incubator to move along directions x, y and z so that the images selected by the operator can be recorded and acquired at pre-set intervals.
The system thus assembled allows the cells to be maintained in an environment that reproduces the optimum conditions for cell growth (atmosphere with 5% v/v of CO2 in humid air and temperature of 37±0.1° C.), and monitored throughout the experiment. The system is also equipped with software which allows accurate analysis of the images. In particular, the instrumentation is equipped with automated software which allows wound repair to be calculated in wound-healing tests and provides data about the repair rate and cell migration rate, which are important parameters for evaluating the biorevitalising effect of substances that can accelerate or inhibit wound repair in vitro. […]

Sox9 = assay: Real-Time PCR gene expression in human chondrocytes: Sox9; format: cell-based; conditions: 1% w/v, ratio to untreated control
Method: as §1, §2, §3, §4

| Substance | Fold Expression, Collagen Type II (Collagen Type II; phase II, 4 g) | Fold Expression, Collagen Type II (Collagen Type II; phase II, 7 g) | Fold Expression, Collagen Type II (Collagen Type II; phase II, 10 g) | Fold Expression, Collagen Type II (Collagen Type II; phase III, 4 g) | Fold Expression, Collagen Type II (Collagen Type II; phase III, 10 g) | time to wound repair (closure of the cut) (HaCat cells) | effect on the repair process (HaCat cells) | Fold Expression, Sox9 (Sox9; phase II, 4 g) | Fold Expression, Sox9 (Sox9; phase II, 7 g) | Fold Expression, Sox9 (Sox9; phase II, 10 g) | Fold Expression, Sox9 (Sox9; phase III, 4 g) | Fold Expression, Sox9 (Sox9; phase III, 7 g) | Fold Expression, Sox9 (Sox9; phase III, 10 g) | Fold Expression, Collagen Type II (Collagen Type II; phase III, 7 g) |
| --- | --- | --- | --- | --- | --- | --- | --- | --- | --- | --- | --- | --- | --- | --- |
| chondroitin sulphate [CS, reference compound] | 2.8 ± 0.75 | 1.25 ± 0.45 | 0.58 ± 0.29 | 0.50 ± 0.01 | 0.8 ± 0.45 | > 70 h | slows it | 2.2 ± 1.20 | 0.86 ± 0.31 | 0.53 ± 0.02 | 2.6 ± 1.21 | 1.41 ± 0.04 | 0.81 ± 0.05 | – |
| chondroitin | 2.70 ± 0.32 | 2.4 ± 0.43 | 2.56 ± 0.75 | 1.69 ± 0.20 | 2.3 ± 0.16 | less than 20 h | accelerates the repair process | 1.87 ± 0.85 | 1.16 ± 0.15 | 1.78 ± 0.75 | 3.68 ± 0.44 | 1.09 ± 0.01 | 0.53 ± 0.02 | 2.62 ± 0.47 |
